System: HBsAg
Test: HBsAg assay (chemiluminescence immunoassay of secreted HBsAg in HepG2.2.15 culture supernatant)
Format: cell-based, HBV
Conditions: HBsAg secretion reduced by 50% vs no drug control; HepG2.2.15 cells; CLIA kit
Experimental: HepG2.2.15 cells (Acs et al. Proc Natl Acad Sci USA, 84, (1987), 4641-4), a constitutively HBV-expressing cell line were cultured in DMEM+Glutamax-I medium (Invitrogen, Carlsbad, Calif., USA), supplemented with 10% fetal bovine serum (Invitrogen) and G418 (Invitrogen) at a final concentration of 200 mg/L and maintained in 5% CO2 at 37° C.
HepG2.2.15 cells were seeded in duplicate into white, 96-well plates at 1.5×10^4 cells/well. The cells were treated with a three-fold serial dilution series of the compounds in DMSO. The final DMSO concentration in all wells was 1% and DMSO was used as no drug control.
The HBsAg chemiluminescence immunoassay (CLIA) kit (Autobio Diagnostics Co., Zhengzhou, China, Catalog number: CL0310-2) was used to measure the levels of secreted HBV antigens semi-quantitatively. For the detection 50 μL/well culture supernatant was used and HBsAg was quantified using HBsAg chemiluminescence immunoassay (CLIA) kit (Autobio Diagnostics Co., Zhengzhou, China, Catalog number: CL0310-2), 50 μL of the supernatant was transferred to the CLIA assay plate and 50 μL of enzyme conjugate reagent was added into each well. The plates were sealed and gently agitated for 1 hour at room temperature. The supernatant-enzyme-mixture was discarded and wells were washed 6 times with 300 μL of PBS. The residual liquid was removed by plating the CLIA plate right side down on absorbent tissue paper. 25 μL of substrates A and B were added to each well. Luminance was measured using a luminometer (Mithras LB 940 Multimode Microplate Reader) after 10 minutes incubation. Dose-response curves were generated and the IC50 value was extrapolated by using the E-WorkBook Suite (ID Business Solutions Ltd., Guildford, UK).
The compounds of the present invention were tested for their capacity to inhibit HBsAg as described herein.

SMILES	IC50
COCCCOc1cc2c(c(F)c1F)-c1cc(=O)c(C(=O)O)cn1C(C(C)C)C2 (single isomer, unassigned; (+)) [Example 214, (+)-10,11-difluoro-6-isopropyl-9-(3-methoxypropoxy)-2-oxo-6,7-dihydrobenzo[a]quinolizine-3-carboxylic acid]	15 nM
CCOc1cc2c(cc1OCC)-c1cc(=O)c(C(=O)O)cn1C(CC)C2 (single isomer, unassigned; (-)) [Example 7, (−)-9,10-diethoxy-6-ethyl-2-oxo-6,7-dihydrobenzo[a]quinolizine-3-carboxylic acid]	1900 nM
CCC1Cc2cc(OCc3ccccc3)c(OC)cc2-c2cc(=O)c(C(=O)O)cn21 (single isomer, unassigned; (-)) [Example 10, (−)-9-benzyloxy-6-ethyl-10-methoxy-2-oxo-6,7-dihydrobenzo[a]quinolizine-3-carboxylic acid]	1240 nM
CCC1Cc2cc(OCC(F)(F)F)c(OC)cc2-c2cc(=O)c(C(=O)O)cn21 (single isomer, unassigned; (-)) [Example 12, (−)-6-ethyl-10-methoxy-2-oxo-9-(2,2,2-trifluoroethoxy)-6,7-dihydrobenzo[a]quinolizine-3-carboxylic acid]	5200 nM
CCC1Cc2cc(OCC(C)(C)CO)c(OC)cc2-c2cc(=O)c(C(=O)O)cn21 (single isomer, unassigned; (-)) [Example 24, (−)-6-ethyl-9-(3-hydroxy-2,2-dimethyl-propoxy)-10-methoxy-2-oxo-6,7-dihydrobenzo[a]quinolizine-3-carboxylic acid]	1350 nM
CCC1Cc2cc(OCCOC)c(OC)cc2-c2cc(=O)c(C(=O)O)cn21 (single isomer, unassigned; (-)) [Example 29, (−)-6-ethyl-10-methoxy-9-(2-methoxyethoxy)-2-oxo-6,7-dihydrobenzo[a]quinolizine-3-carboxylic acid]	1950 nM
CCC1Cc2cc(OCC3CC3)c(OC)cc2-c2cc(=O)c(C(=O)O)cn21 (single isomer, unassigned; (-)) [Example 32, (−)-9-(cyclopropylmethoxy)-6-ethyl-10-methoxy-2-oxo-6,7-dihydrobenzo[a]quinolizine-3-carboxylic acid]	75 nM
CCC1Cc2cc(OCC(C)C)c(OC)cc2-c2cc(=O)c(C(=O)O)cn21 (single isomer, unassigned; (-)) [Example 35, (−)-6-ethyl-9-isobutoxy-10-methoxy-2-oxo-6,7-dihydrobenzo[a]quinolizine-3-carboxylic acid]	1390 nM
CCOc1cc2c(cc1OC)-c1cc(=O)c(C(=O)O)cn1C(CC)C2 (single isomer, unassigned; (-)) [Example 38, (−)-9-ethoxy-6-ethyl-10-methoxy-2-oxo-6,7-dihydrobenzo[a]quinolizine-3-carboxylic acid]	1810 nM
CCC1Cc2cc(OCCCOC)c(OC)cc2-c2cc(=O)c(C(=O)O)cn21 (single isomer, unassigned; (-)) [Example 41, (−)-6-ethyl-10-methoxy-9-(3-methoxypropoxy)-2-oxo-6,7-dihydrobenzo[a]quinolizine-3-carboxylic acid]	5770 nM
CCOCCOc1cc2c(cc1OC)-c1cc(=O)c(C(=O)O)cn1C(CC)C2 (single isomer, unassigned; (-)) [Example 44, (−)-9-(2-ethoxyethoxy)-6-ethyl-10-methoxy-2-oxo-6,7-dihydrobenzo[a]quinolizine-3-carboxylic acid]	5460 nM
CCC1Cc2cc(OCC(F)F)c(OC)cc2-c2cc(=O)c(C(=O)O)cn21 (single isomer, unassigned; (-)) [Example 47, (−)-9-(2,2-difluoroethoxy)-6-ethyl-10-methoxy-2-oxo-6,7-dihydrobenzo[a]quinolizine-3-carboxylic acid]	3400 nM
CCC1Cc2cc(OCC3CCOCC3)c(OC)cc2-c2cc(=O)c(C(=O)O)cn21 (single isomer, unassigned; (-)) [Example 50, (−)-6-ethyl-10-methoxy-2-oxo-9-(tetrahydropyran-4-ylmethoxy)-6,7-dihydrobenzo[a]quinolizine-3-carboxylic acid]	400 nM
COc1cc2c(cc1OC)-c1cc(=O)c(C(=O)O)cn1C(C)C2 (single isomer, unassigned; (-)) [Example 68, (−)-9,10-dimethoxy-6-methyl-2-oxo-6,7-dihydrobenzo[a]quinolizine-3-carboxylic acid]	5670 nM
CCCOc1cc2c(cc1OC)-c1cc(=O)c(C(=O)O)cn1C(CC)C2 (single isomer, unassigned; (-)) [Example 80, (−)-6-ethyl-10-methoxy-2-oxo-9-propoxyl-6,7-dihydrobenzo[a]quinolizine-3-carboxylic acid]	190 nM
CCC1Cc2cc(OC)c(C3CC3)cc2-c2cc(=O)c(C(=O)O)cn21 (single isomer, unassigned; (-)) [Example 91, (−)-10-cyclopropyl-6-ethyl-9-methoxy-2-oxo-6,7-dihydrobenzo[a]quinolizine-3-carboxylic acid]	500 nM
COc1cc2c(cc1OC)-c1cc(=O)c(C(=O)O)cn1C(C(C)C)C2 (single isomer, unassigned; (-)) [Example 100, (−)-6-isopropyl-9,10-dimethoxy-2-oxo-6,7-dihydrobenzo[a]quinolizine-3-carboxylic acid]	5400 nM
COc1cc2c(cc1OC)-c1cc(=O)c(C(=O)O)cn1C(CC(C)C)C2 (single isomer, unassigned; (-)) [Example 103, (−)-6-isobutyl-9,10-dimethoxy-2-oxo-6,7-dihydrobenzo[a]quinolizine-3-carboxylic acid]	3420 nM
COCCOc1cc2c(cc1Cl)-c1cc(=O)c(C(=O)O)cn1C(CC(C)C)C2 (single isomer, unassigned; (-)) [Example 106, (−)-10-chloro-6-isobutyl-9-(2-methoxyethoxy)-2-oxo-6,7-dihydrobenzo[a]quinolizine-3-carboxylic acid]	7310 nM
COCCOc1cc2c(cc1Cl)-c1cc(=O)c(C(=O)O)cn1C(C(C)C)C2 (single isomer, unassigned; (-)) [Example 109, (−)-10-chloro-6-isopropyl-9-(2-methoxyethoxy)-2-oxo-6,7-dihydrobenzo[a]quinolizine-3-carboxylic acid]	61 nM
CCC1Cc2cc(OCc3ccccc3)c(C)cc2-c2cc(=O)c(C(=O)O)cn21 (single isomer, unassigned; (-)) [Example 117, (−)-9-benzyloxy-6-ethyl-10-methyl-2-oxo-6,7-dihydrobenzo[a]quinolizine-3-carboxylic acid]	910 nM
COCCCOc1cc2c(cc1Cl)-c1cc(=O)c(C(=O)O)cn1C(C(C)C)C2 (single isomer, unassigned; (-)) [Example 122, (−)-10-chloro-6-isopropyl-9-(3-methoxypropoxy)-2-oxo-6,7-dihydrobenzo[a]quinolizine-3-carboxylic acid]	690 nM
COc1cc2c(cc1OCC(F)(F)F)CC(C(C)C)n1cc(C(=O)O)c(=O)cc1-2 (single isomer, unassigned; (-)) [Example 128, (−)-6-isopropyl-10-methoxy-2-oxo-9-(2,2,2-trifluoroethoxy)-6,7-dihydrobenzo[a]quinolizine-3-carboxylic acid]	670 nM
COCCOc1cc2c(cc1OC)-c1cc(=O)c(C(=O)O)cn1C(C(C)C)C2 (single isomer, unassigned; (-)) [Example 130, (−)-6-isopropyl-10-methoxy-9-(2-methoxyethoxy)-2-oxo-6,7-dihydrobenzo[a]quinolizine-3-carboxylic acid]	1540 nM
COCCCOc1cc2c(cc1OC)-c1cc(=O)c(C(=O)O)cn1C(C(C)(C)C)C2 (single isomer, unassigned; (-)) [Example 133, (−)-6-tert-butyl-10-methoxy-9-(3-methoxypropoxy)-2-oxo-6,7-dihydrobenzo[a]quinolizine-3-carboxylic acid]	330 nM
COCCOc1cc2c(cc1OC)-c1cc(=O)c(C(=O)O)cn1C(C1(C)CC1)C2 (single isomer, unassigned; (-)) [Example 136, (−)-10-methoxy-9-(2-methoxyethoxy)-6-(1-methylcyclopropyl)-2-oxo-6,7-dihydrobenzo[a]quinolizine-3-carboxylic acid]	400 nM
COCCCOc1cc2c(c(Cl)c1F)-c1cc(=O)c(C(=O)O)cn1C(C(C)C)C2 (single isomer, unassigned; (-)) [Example 139, (−)-11-chloro-10-fluoro-6-isopropyl-9-(3-methoxypropoxy)-2-oxo-6,7-dihydrobenzo[a]quinolizine-3-carboxylic acid]	129 nM
COc1cc2c(cc1OCC(F)F)CC(C(C)C)n1cc(C(=O)O)c(=O)cc1-2 (single isomer, unassigned; (-)) [Example 143, (−)-9-(2,2-difluoroethoxy)-6-isopropyl-10-methoxy-2-oxo-6,7-dihydrobenzo[a]quinolizine-3-carboxylic acid]	190 nM
